# Measured values: US20240139172A1, “PIPERIDINE UREA DERIVATIVES FOR CANCER THERAPY” (NeuroPn Therapeutics, Inc., priority 2022, published 2024)
# Test system: adult zebrafish
# Test: Paclitaxel-induced peripheral neuropathy in adult zebrafish (number of stimuli until twitch)
# Assay type: in vivo
# Details: 3 μL of 10-μM paclitaxel solution for four consecutive days, FIG. 9
# Experimental: Method to evaluate potential of compounds of Formula 1 to reduce or block chemotherapy-induced peripheral neuropathy—Animal (zebrafish) model described below and in literature (Lisse T S et al PNAS 113 (15) E2189-E2198) was used to evaluate potential of compounds of Formula 1 to reduce or block neuronal damage induced by chemotherapeutics.
# To induce peripheral neuropathy in adult zebrafish, 3 μL of a 10-μM paclitaxel solution in 0.15% DMSO was administered with a 33 gauge Hamilton Syringe for a zebrafish with average ˜200 mg body weight. Fish were treated with vehicle alone or paclitaxel for four consecutive days (Days 2-5) or paclitaxel with Compound A (10- or 30 ng). Compound A was dosed orally by mixing with the fish feed pellets. Fishes were conditioned to consume three pellets a day. […] To prepare test compound infused pellet, a known quantity of the compound was mixed with the known quantity of the feed powder and were extruded in to 4 mg pellet containing the desired administration dose per pellet. Concentration of test compound dosed per fish were controlled by the number of pellets and the quantity of compound per pellet. […]
# To determine the peripheral nerve damage, fish were wrapped in plastic foil until calm, and the distal tail fin was stimulated with an insect pin until twitching of the fish was observed. Number of stimuli until twitch was recorded.
smiles,measurement,value
CC(=O)O[C@H]1C(=O)[C@@]2(C)[C@H]([C@H](OC(=O)c3ccccc3)[C@]3(O)C[C@H](OC(=O)[C@H](O)[C@@H](NC(=O)c4ccccc4)c4ccccc4)C(C)=C1C3(C)C)[C@]1(OC(C)=O)CO[C@@H]1C[C@@H]2O [paclitaxel],peripheral nerve damage (increase in number of stimuli needed) compared to vehicle alone,significant nerve damage
